≈ marks a conversion by molar mass, not a printed value. Read-outs that look alike come from different tables or passages of the source.
Tests used:
Assay type in all cases: cell-based, Candida albicans
[1] = system: C. albicans ATCC 10231 (strain A); assay: MIC determination by in vitro antifungal assay (CLSI broth dilution); conditions: strain A = C. albicans ATCC 10231, no visible growth, 48 h at 35° C.
Procedure, shortened: (§1)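 Overnight YPD cultures of yeast were adjusted in RPMI 1640 to OD600 0.12 (˜1×10^6 CFU/mL) and diluted 1:100. The cells were added to serially double-diluted compound (0.06-31.3 μg/mL) in MOPS-buffered RPMI 1640 at pH 7.0. Plates were then incubated at 35° C for 48 h.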

[2] = system: C. albicans ATCC 64124 (B); assay: MIC determination by in vitro antifungal assay
Procedure, shortened: as §1

[3] = system: C. albicans ATCC 90819 (D); assay: MIC determination by in vitro antifungal assay
Procedure, shortened: as §1

[4] = system: C. albicans ATCC MYA-1003 (G); assay: MIC determination by in vitro antifungal assay; conditions: strain G = C. albicans ATCC MYA-1063(R) (footnote), MYA-1003 in text
Procedure, shortened: as §1

[5] = system: C. albicans ATCC MYA-1237 (F); assay: MIC determination by in vitro antifungal assay; conditions: strain F = C. albicans ATCC MYA-1237(R)
Procedure, shortened: as §1

[6] = system: C. albicans ATCC MYA-2310 (E); assay: MIC determination by in vitro antifungal assay; conditions: strain E = C. albicans ATCC MYA-2310
Procedure, shortened: as §1

[7] = system: C. albicans ATCC MYA-2876 (C); assay: MIC determination by in vitro antifungal assay; conditions: strain C = C. albicans ATCC MYA-2876(S)
Procedure, shortened: as §1

[8] = strain B = C. albicans ATCC 64124
[9] = strain D = C. albicans ATCC 90819(R)
[10] = Candida albicans, ATCC10231, 48 h, read-out: MIC
[11] = Candida albicans, ATCC64124, strain B = C. albicans ATCC 64124, read-out: MIC
[12] = Candida albicans, ATCC90819, strain D = C. albicans ATCC 90819(R), read-out: MIC
[13] = Candida albicans, read-out: MIC

| SMILES | MIC [1] | MIC [2, 8] | MIC [3, 9] | MIC [4] | MIC [5] | MIC [6] | MIC [7] | MIC [1, 10] | MIC [2, 11] | MIC [3, 12] | MIC [4, 13] | MIC [5, 13] | MIC [6, 13] | MIC [7, 13] |
| --- | --- | --- | --- | --- | --- | --- | --- | --- | --- | --- | --- | --- | --- | --- |
| O=C(NNc1cccc(F)c1)c1cccc(Br)n1 [Compound 6a] | 0.49 μg/mL^−1 | 1.95 μg/mL^−1 | 7.8 μg/mL^−1 | 3.9 μg/mL^−1 | 3.9 μg/mL^−1 | 3.9 μg/mL^−1 | 1.95 μg/mL^−1 |  |  |  |  |  |  |  |
| COc1cccc(NNC(=O)c2ccc(Br)cn2)c1 [Compound 4c] |  |  |  |  |  |  |  | 0.98 µg/mL (≈ 3.04 µM) | 0.98 µg/mL (≈ 3.04 µM) | 3.9 µg/mL (≈ 12.1 µM) | 0.98 µg/mL (≈ 3.04 µM) | 1.95 µg/mL (≈ 6.05 µM) | 1.95 µg/mL (≈ 6.05 µM) | 0.49 µg/mL (≈ 1.52 µM) |
| O=C(NNc1ccc(Cl)cc1)c1ccc(F)cn1 [Compound 3e] | 1.95 μg/mL^−1 | 1.95 μg/mL^−1 | 3.9 μg/mL^−1 | 0.98 μg/mL^−1 | 1.95 μg/mL^−1 | 1.95 μg/mL^−1 | 1.95 μg/mL^−1 |  |  |  |  |  |  |  |
| O=C(NNc1ccc(F)cc1)c1ccc(Br)cn1 [Compound 4d] |  |  |  |  |  |  |  | 1.95 µg/mL (≈ 6.29 µM) | 7.8 µg/mL (≈ 25.2 µM) | 7.8 µg/mL (≈ 25.2 µM) | 1.9 µg/mL (≈ 6.13 µM) | 7.8 µg/mL (≈ 25.2 µM) | 7.8 µg/mL (≈ 25.2 µM) | 7.8 µg/mL (≈ 25.2 µM) |
| COc1ccc(NNC(=O)c2ncc(F)cc2F)cc1 [Compound 7f] |  |  |  |  |  |  |  | 1.95 µg/mL (≈ 6.98 µM) | 1.95 µg/mL (≈ 6.98 µM) | 1.95 µg/mL (≈ 6.98 µM) | 0.98 µg/mL (≈ 3.51 µM) | 0.98 µg/mL (≈ 3.51 µM) | 1.95 µg/mL (≈ 6.98 µM) | 1.95 µg/mL (≈ 6.98 µM) |
| O=C(NNc1ccc(F)cc1)c1nc(F)ccc1F [Compound 8d] |  |  |  |  |  |  |  | 0.24 µg/mL (≈ 0.898 µM) | 0.98 µg/mL (≈ 3.67 µM) | 0.98 µg/mL (≈ 3.67 µM) | 0.49 µg/mL (≈ 1.83 µM) | 0.98 µg/mL (≈ 3.67 µM) | 0.98 µg/mL (≈ 3.67 µM) | 0.98 µg/mL (≈ 3.67 µM) |
| O=C(NNc1cc(F)ccc1F)c1ccccn1 [Compound 2h] |  |  |  |  |  |  |  | 0.12 µg/mL (≈ 0.482 µM) | 1.95 µg/mL (≈ 7.82 µM) | 0.98 µg/mL (≈ 3.93 µM) | 0.98 µg/mL (≈ 3.93 µM) | 1.95 µg/mL (≈ 7.82 µM) | 1.95 µg/mL (≈ 7.82 µM) | 3.9 µg/mL (≈ 15.6 µM) |
| O=C(NNc1cccc(F)c1)c1nc(F)ccc1F [Compound 8a] | 0.98 μg/mL^−1 | 0.98 μg/mL^−1 | 3.9 μg/mL^−1 | 0.98 μg/mL^−1 | 1.95 μg/mL^−1 | 1.95 μg/mL^−1 | 1.95 μg/mL^−1 |  |  |  |  |  |  |  |
| O=C(NNc1ccc(F)cc1)c1ccccn1 [Compound 2d] |  |  |  |  |  |  |  | 0.12 µg/mL (≈ 0.519 µM) | 0.98 µg/mL (≈ 4.24 µM) | 0.98 µg/mL (≈ 4.24 µM) | 0.49 µg/mL (≈ 2.12 µM) | 1.95 µg/mL (≈ 8.43 µM) | 1.95 µg/mL (≈ 8.43 µM) | 3.9 µg/mL (≈ 16.9 µM) |
| O=C(NNc1cccc(Cl)c1)c1ccc(F)cc1F [Compound 1b] |  |  |  |  |  |  |  | 1.95 µg/mL (≈ 6.9 µM) | 7.8 µg/mL (≈ 27.6 µM) | 15.6 µg/mL (≈ 55.2 µM) | 3.9 µg/mL (≈ 13.8 µM) | 3.9 µg/mL (≈ 13.8 µM) | 7.8 µg/mL (≈ 27.6 µM) | 7.8 µg/mL (≈ 27.6 µM) |
| O=C(NNc1cc(Cl)cc(Cl)c1)c1ccccn1 [Compound 2j] |  |  |  |  |  |  |  | 0.24 µg/mL (≈ 0.851 µM) | 1.95 µg/mL (≈ 6.91 µM) | 0.98 µg/mL (≈ 3.47 µM) | 1.95 µg/mL (≈ 6.91 µM) | 3.9 µg/mL (≈ 13.8 µM) | 1.95 µg/mL (≈ 6.91 µM) | 1.95 µg/mL (≈ 6.91 µM) |
| COc1ccc(NNC(=O)c2cccc(F)n2)cc1 [Compound 5f] |  |  |  |  |  |  |  | 0.24 µg/mL (≈ 0.919 µM) | 1.95 µg/mL (≈ 7.46 µM) | 1.95 µg/mL (≈ 7.46 µM) | 0.98 µg/mL (≈ 3.75 µM) | 0.98 µg/mL (≈ 3.75 µM) | 0.98 µg/mL (≈ 3.75 µM) | 0.98 µg/mL (≈ 3.75 µM) |
| COc1ccc(NNC(=O)c2cccc(Br)n2)cc1 [Compound 6f] |  |  |  |  |  |  |  | 1.95 µg/mL (≈ 6.05 µM) | 3.9 µg/mL (≈ 12.1 µM) | 3.9 µg/mL (≈ 12.1 µM) | 3.9 µg/mL (≈ 12.1 µM) | 0.98 µg/mL (≈ 3.04 µM) | 3.9 µg/mL (≈ 12.1 µM) | 1.95 µg/mL (≈ 6.05 µM) |
| O=C(NNc1ccc(Cl)cc1)c1ccc(F)cc1F [Compound 1e] | 1.95 μg/mL^−1 | 15.6 μg/mL^−1 | 3.9 μg/mL^−1 | 7.8 μg/mL^−1 | 1.95 μg/mL^−1 | 7.8 μg/mL^−1 | 15.6 μg/mL^−1 |  |  |  |  |  |  |  |
| O=C(NNc1cccc(F)c1)c1ncc(F)cc1F [Compound 7a] | 0.24 μg/mL^−1 | 0.98 μg/mL^−1 | 3.9 μg/mL^−1 | 1.95 μg/mL^−1 | 3.9 μg/mL^−1 | 1.95 μg/mL^−1 | 1.95 μg/mL^−1 |  |  |  |  |  |  |  |
| O=C(NNc1cccc(F)c1)c1cccc(F)n1 [Compound 5a] | 0.49 μg/mL^−1 | 0.49 μg/mL^−1 | 7.8 μg/mL^−1 | 1.95 μg/mL^−1 | 1.95 μg/mL^−1 | 1.95 μg/mL^−1 | 3.9 μg/mL^−1 |  |  |  |  |  |  |  |
| O=C(NNc1ccc(F)cc1)c1cccc(F)n1 [Compound 5d] |  |  |  |  |  |  |  | 0.24 µg/mL (≈ 0.963 µM) | 0.98 µg/mL (≈ 3.93 µM) | 1.95 µg/mL (≈ 7.82 µM) | 0.98 µg/mL (≈ 3.93 µM) | 1.95 µg/mL (≈ 7.82 µM) | 3.9 µg/mL (≈ 15.6 µM) | 1.95 µg/mL (≈ 7.82 µM) |
